Entries after “also recorded” stand apart in the source; their conditions may differ. Where two headings read alike, the source gives them in different places.

For assay [1], the system named is Notch target genes. Briefly: RT-qPCR of Notch target genes in Notch/NACK-dependent cells. Type of assay: cell-based, human. As to conditions: for down regulation of Notch target genes (q-PCR profile): compared to Z271-0326, FIGS. 13A-13D. As for the experimental part: To assess the effect of NACK inhibitor on Notch target gene transcription, Notch/NACK-dependent cell lines were treated with NACK inhibitors. The cells were also treated with DAPT as a positive control. DMSO treated cells served as a vehicle control for comparison. Gene expression was normalized to HPRT, and TBP served as a negative control to validate normalization.
Reverse transcription and qPCR analysis were performed as described previously (See Weaver et al., Cancer Research 74, 4741-4751 (2014)). Gene expression was normalized to the TATA-binding protein (“TBP”) gene. As a control, hypoxanthine phosphoribosyltransferase 1 (“HPRT”) gene expression was also monitored.

Assay [2] has as its system HC11 cells. Kind of assay: Colony formation assay in HC11 cells. As to conditions: Notch/NACK independent cell line; FIG. 5B. Type of assay: cell-based, mouse. On the procedure: (§1) A cell based colony formation assay was used in these experiments. Normal mouse mammary epithelia HC11 cells have little or no endogenous NACK expression, and NACK knockdown had no effect on the growth of HC11 cells (FIG. 5A, lower panel). […] Knockdown of NACK was confirmed by western blot and qPCR (FIGS. 1D and 1E). […] Therefore, compounds that affect OE33 colony formation but not HC11 were desired. In order to screen the compounds, cells were treated with test compounds every other day.
(§2) Colony formation assay was utilized to determine the effect of small molecule inhibitors on cell proliferation. In general, different cell lines (NACK dependent or independent) will be seeded in 6-well plates at a density of 2000 cells per well and allowed to attach overnight. Inhibitor treatment commenced 24 hours post seeding, and the media containing inhibitor was changed every 48 hours thereafter. After 168 hours, colonies were be stained with Crystal Violet (Millipore) and counted.

Assay [3] relates to OE33 cell line. Kind of assay: Colony formation assay in OE33 cells. Type of assay: cell-based, human. As to conditions: for OE33 colony formation: cells treated every other day, FIGS. 5B, 5C; for EC50: Homo sapiens, read-out: EC50 colony formation titration assay. On the procedure:
as §1, §2

In assay [4] the target is T1, NACK (Mus musculus, UniProt Q571I4).
T1 sequence (Q571I4 1-1373): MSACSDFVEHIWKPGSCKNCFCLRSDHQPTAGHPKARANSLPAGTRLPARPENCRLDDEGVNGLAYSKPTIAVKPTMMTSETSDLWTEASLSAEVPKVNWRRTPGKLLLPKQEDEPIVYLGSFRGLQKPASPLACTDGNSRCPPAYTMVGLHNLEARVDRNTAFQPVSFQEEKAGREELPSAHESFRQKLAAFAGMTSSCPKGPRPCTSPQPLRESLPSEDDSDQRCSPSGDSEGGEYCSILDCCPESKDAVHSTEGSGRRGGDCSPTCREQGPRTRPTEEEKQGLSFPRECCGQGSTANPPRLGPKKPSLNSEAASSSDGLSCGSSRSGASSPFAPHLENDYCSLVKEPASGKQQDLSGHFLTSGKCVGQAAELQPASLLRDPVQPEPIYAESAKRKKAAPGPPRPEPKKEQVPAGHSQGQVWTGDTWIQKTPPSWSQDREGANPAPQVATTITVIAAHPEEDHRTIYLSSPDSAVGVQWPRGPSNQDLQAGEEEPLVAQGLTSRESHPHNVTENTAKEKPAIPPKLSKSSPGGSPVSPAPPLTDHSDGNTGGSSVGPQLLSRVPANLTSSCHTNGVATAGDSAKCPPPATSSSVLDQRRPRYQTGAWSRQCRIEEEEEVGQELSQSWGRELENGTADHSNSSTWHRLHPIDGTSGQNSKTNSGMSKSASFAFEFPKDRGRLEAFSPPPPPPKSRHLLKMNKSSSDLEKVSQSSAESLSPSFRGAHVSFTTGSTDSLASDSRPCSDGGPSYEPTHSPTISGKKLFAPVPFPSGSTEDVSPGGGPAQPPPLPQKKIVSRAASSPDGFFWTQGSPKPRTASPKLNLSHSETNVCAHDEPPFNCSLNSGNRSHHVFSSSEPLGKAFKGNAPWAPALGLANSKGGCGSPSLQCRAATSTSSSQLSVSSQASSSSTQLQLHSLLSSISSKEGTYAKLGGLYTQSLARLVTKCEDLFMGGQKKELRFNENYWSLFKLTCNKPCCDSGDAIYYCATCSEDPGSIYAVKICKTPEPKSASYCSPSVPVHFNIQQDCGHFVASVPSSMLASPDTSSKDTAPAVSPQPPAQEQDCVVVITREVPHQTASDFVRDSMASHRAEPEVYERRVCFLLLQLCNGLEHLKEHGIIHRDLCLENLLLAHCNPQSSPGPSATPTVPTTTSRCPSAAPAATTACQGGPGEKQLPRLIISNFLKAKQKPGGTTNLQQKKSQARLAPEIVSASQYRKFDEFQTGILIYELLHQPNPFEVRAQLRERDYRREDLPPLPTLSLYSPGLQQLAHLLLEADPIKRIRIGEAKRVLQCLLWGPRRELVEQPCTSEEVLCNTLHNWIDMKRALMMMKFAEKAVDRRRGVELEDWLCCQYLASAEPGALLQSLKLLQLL
Briefly: Surface plasmon resonance (SPR) binding to GST tagged NACK. As for the experimental part: The interaction between inhibitor Z271-0326 and target NACK was characterized using surface plasmon resonance (SPR). For this purpose, GST tagged NACK was captured by a GST antibody that was previously immobilized onto the surface of the chip through standard amide coupling. The dissociation constants associated with binding of the compounds to NACK was determined using the equilibrium approach, which consists of plotting the equilibrium response (Req) as a function of concentration of the compound and fitting the data to a 1:1 binding model.
A GST capture kit (GE Healthcare) were utilized to covalently immobilize an anti-GST antibody, provided in the kit, to the sensor chip surface (CM5 chip, GE Healthcare) by following the manufacturer's instructions. Capture were performed by injecting GST-NACK (1 μg/μL) over the immobilized anti-GST antibody in Hepes buffer (10 mM Hepes, pH 7.5, 150 mM NaCl, 3 mM EDTA, 0.0005% NP-40) for 7 min at 10 μL/min. A reference flow cell was prepared by capturing GST following the procedure described above. […] Experiments were performed on a Biacore T200 instrument (GE Healthcare) at 25° C. Small molecule inhibitors binding to NACK were performed in 50 mM Tris buffer, pH 7.5, containing 150 mM NaCl, 10 mM MgCl2 and 5% DMSO (running buffer). The SPR signal arising from the sample was corrected for its respective control containing DMSO. Data visualization and analysis was performed using Biacore T200 software (GE Healthcare) and Origin 8.0 (OriginLab).

The target of assay [5] is T2, NACK binding to the Notch transcription complex (Mus musculus, UniProt Q571I4).
T2 construct: expressed in transfected cells; host or cells: 293T
T2 sequence (Q571I4 1-1373): T1 sequence (Q571I4 1-1373)
Briefly: CSL-DNA affinity precipitation (CSL-DAP) assay. As to conditions: 293T cells transfected with N1ICD, Maml1, NACK; 2 hours treatment; FIG. 6A. It is filed as cell-based. As for the experimental part: To determine the specificity of hit-to-lead compounds targeting NACK activity, it was evaluated whether iNACK can block NACK binding to the Notch complex by conducting CSL-DNA affinity precipitation (CSL-DAP) assay. […] In the CSL-DAP assay, 293T cells were co-transfected with N1^ICD, Maml1 and NACK. Transfections were performed using LipoJet transfection reagent (SL100468, SignaGen Laboratories) according to the manufacturer recommended protocol. After two days of transfection, cells were treated with compounds for 2 hours prior collecting the cell lysate. Cell lysates were incubated with DNA streptavidin beads. Proteins that bound to the beads were analyzed by Western blot.
Western blot was performed as described previously (See Weaver et al., Cancer Research 74, 4741-4751 (2014)). Primary antibodies were α-NACK (1:1,000; against aa209-287 of NACK and affinity purified), α-CSL (1:1,000; generated against full-length CSL and affinity purified), α-Maml1 (1:5,000; Cell Signaling Technology), α-cleaved-Notch1 (1:1,000; Cell Signaling Technology).

Assay [6] concerns OE33 spheres. Kind of assay: Tumor sphere formation assay in OE33. It is filed as cell-based, human. As to conditions: OE33; FIG. 7A. As for the experimental part:
In order to assess the effect of hit to lead compounds on the proliferation of stem cell like population of Notch/NACK dependent cells, the primary tumor spheres were treated with NACK inhibitor and allow the cells to be propagated as secondary cultures. To obtain tumor spheres, cells were cultured in DMEM/F12 with 2% B-27 serum-free supplement (17604-044; Invitrogen), 20 ng/mL epidermal growth factor (EGF; PHG0311L; Invitrogen), and 20 ng/mL basic fibroblastic growth factor (bFGF; PHG0266; Invitrogen) for 14 days. Resulting tumor spheres were examined and counted under the microscope. Furthermore, the tumor spheres were collected for further RT-qPCR analysis to test the effect of hit to lead compounds on the stem like target genes.

As for `CCN(CC)C(=O)c1cnn2ccc(C3CCN(S(=O)(=O)c4ccc(NC(=O)OC)cc4)CC3)cc12` [Compound 7C, methyl N-[4-({4-[3-(diethylcarbamoyl)pyrazolo[1,5-a]pyridin-5-yl]piperidinyl}sulfonyl)phenyl]carbamate], in assay [1] (with respect to DMSO and Z271-0326, FIG. 16), the “expression of oncogenes cMYC, CCND1, HES1 (Q-PCR)” value was “downregulate oncogenes cMYC, CCND1, and HES1”.
As for `N#Cc1cccc(NC(=O)N2CCC(c3ccn4ncc(C(=O)N5CCCCC5)c4c3)CC2)c1` [Compound Z270-0137], the “HC11 colony formation / viability” value in assay [2] is “but not HC11 cell”. Besides, the OE33 colony formation entry in assay [3] is recorded as “effectively inhibit OE33 colony formation”.
Turning to `CC(=O)Nc1ccc(S(=O)(=O)N2CCC(c3ccn4ncc(C(=O)N5CCCC5)c4c3)CC2)cc1` [Compound 7H, N-[4-({4-[3-(pyrrolidine-1-carbonyl)pyrazolo[1,5-a]pyridin-5-yl]piperidin-1-yl}sulfonyl)phenyl]acetamide], in assay [1], the “down regulation of Notch target genes (q-PCR profile)” value is listed as “performed the best in down regulating Notch target genes, even better than Z271-0326”.
Regarding `Nc1ncnc2c1ncn2[C@@H]1O[C@H](COP(=O)(O)OP(=O)(O)NP(=O)(O)O)[C@@H](O)[C@H]1O` [AMP-PNP], the Kd was approximately 1500 nM in assay [4] (SPR, FIG. 4C, read-out: binding constant) and 1500 ± 500 nM in assay [4] (equilibrium approach, 1:1 binding model, 25° C., FIG. 10A, read-out: KD).
For `O=C(c1cnn2ccc(C3CCN(S(=O)(=O)Cc4ccccc4)CC3)cc12)N1CCCCC1` [Compound Z271-0132], the “inhibition of NACK binding to the Notch transcription complex” value in assay [5] is recorded as “dramatically inhibit NACK binding to the NOTCH transcription complex; also recorded: blocks binding of NACK to the ternary complex”. The “selectivity between OE33 and HC11 cell lines” value in assay [3] (colony formation) was “displays no selectivity between OE33 and HC11 cell lines”.
Regarding `CC(=O)Nc1ccc(S(=O)(=O)N2CCC(c3ccn4ncc(C(=O)N5CCC5)c4c3)CC2)cc1` [Compound 71C, N-[4-({4-[3-(azetidine-1-carbonyl)pyrazolo[1,5-a]pyridin-5-yl]piperidin-1-yl}sulfonyl)phenyl]acetamide], in assay [3] (OE33, OE33 cell line, FIG. 18), the EC50 was found to be 330 nM.
On to `CC1CCN(C(=O)c2cnn3ccc(C4CCN(S(=O)(=O)c5ccccc5)CC4)cc23)CC1` [Compound Z271-0191], for which the “mRNA levels of Notch target genes Hes1 and Notch3” value in assay [1] (OE33, FIG. 6B) is “decrease the mRNA levels of Notch target genes Hes1 and Notch3”. Also, the “inhibition of NACK binding to the Notch transcription complex” value in assay [5] is “dramatically inhibit NACK binding to the NOTCH transcription complex”. Besides, in assay [6], the secondary sphere formation entry is listed as “less effective compared to Z271-0326”. Moreover, the “HC11 colony formation / viability” value in assay [2] was “but not HC11 cell”. Further, the EC50 in assay [3] (OE33, estimated, FIG. 6C) was 3740 nM. The OE33 colony formation result in assay [3] is “effectively inhibit OE33 colony formation”.
`CC(C)(C)OC(=O)Nc1ccc(S(=O)(=O)N2CCC(c3ccn4ncc(C(=O)N5CCCC5)c4c3)CC2)cc1` [Compound 71B, tert-butyl N-[4-({4-[3-(pyrrolidine-1-carbonyl)pyrazolo[1,5-a]pyridin-5-yl]piperidin-1-yl}sulfonyl)phenyl]carbamate]: the EC50 in assay [3] (OE33, OE33 cell line, FIG. 18) is 608 nM.
On to `CC(=O)Nc1ccc(S(=O)(=O)N2CCC(c3ccn4ncc(C(=O)N5CCCCC5)c4c3)CC2)cc1` [Compound 7M, N-[4-({4-[3-(piperidine-1-carbonyl)pyrazolo[1,5-a]pyridin-5-yl]piperidin-1-yl}sulfonyl)phenyl]acetamide], for which the “down regulation of Notch target genes (q-PCR profile)” value in assay [1] is “can also down regulate Notch target genes, but not as good as compound 7H”.

Source of the values: US12077508B2, “Inhibitors of the Notch transcriptional activation complex kinase (“NACK”) and methods for use of the same” (UNIVERSITY OF MIAMI, priority 2018, dated 2024).
